In patent publication US20190380912A1, “EXCIPIENT FREE GLUCOSAMINE TABLETS AND METHOD OF MAKING” (Purepharm Inc., priority 2018, published 2019) one finds compressibility data, which are given here for 1 compound.

A short description of this series: Friability and hardness of dried tablets on handling. In kind it is physicochemical. The following applies: Pellet Press, dry powder without water.

In the case of `CC(=O)N[C@H]1C(O)O[C@H](CO)[C@@H](O)[C@@H]1O` (stereo partly shown) [N-Acetylglucosamine], the compressibility result is recorded as “did not compress at all”.
